“And” between values parts separate entries of the source, which are not always exact repeats. Identical values can stand only once. Like-named read-outs stand apart in the source and are kept apart here.
Experiments:
[1] = target: ^3H-THK5117 binding sites in AD temporal cortex homogenates (tau) (Homo sapiens, UniProt P10636); experiment: Competition binding against ^3H-THK5117 (3 nM) in temporal cortex homogenates; details: for Ki: AD temporal cortices
Method: (§1) Human brain tissues from eight Alzheimer patients and eight controls were obtained from the Netherlands Brain Bank (demographic details in Table 1), and homogenized in PBS containing 0.1 % BSA and protease/phosphatase inhibitor.
(§2) The specificity and selectivity of ^3H-THK5117 binding was determined by incubating homogenates (0.1 mg tissue) from Alzheimer’s patients’ temporal cortex and hippocampus with ^3H-THK5117 (3 nM), in the presence of THK5117 (10^−5 -10^−13 M), FDDNP (10^−6 -10^−14 M) or BTA-1 (10^−5 -10^−13 M). The results were analyzed with GraphPad Prism software, and the resulting inhibitory constants (Ki) were determined.

[2] = tested on: ^3H-THK5117 binding sites in hippocampus homogenates of one AD case (tau); experiment: Competition binding THK5117 against ^3H-THK5117 (3 nM) in hippocampus homogenates; design: species or system Human
Method: as §1, §2
A. Saturation binding curve and B. Scatchard plot of ^3H-THK5117 (0.04-270nM) for hippocampus homogenates of one AD patient. The plain regression line was determined by GraphPad Prism software and corresponds to the low affinity site. The dotted regression line was determined manually and corresponds to the high affinity site. Corresponding Kd and Bmax values are mentioned below the curve. C. Competition binding curve between THK5117 (10^-13-10^-5M) and ^3H-THK5117 (3nM) for hippocampus homogenates of one AD case. […] Ki Sup Hi = Ki for super high binding site; Ki Hi = Ki for high binding site; Ki Lo = Ki for low binding site.

[3] = tested on: ^3H-PIB binding sites (amyloid); experiment: Competition between ^3H-PIB and unlabeled THK5117; design: species or system Human
[4] = target: neurofibrillary tangles (Homo sapiens, UniProt P10636); experiment: THK5117 autofluorescence staining with adjacent AT8 immunostaining; type: binding; details: paraffin hippocampus section of another AD case; confirmed with AT8 on adjacent section
Chain of neurofibrillary tangles (P10636 623-758 limits assumed): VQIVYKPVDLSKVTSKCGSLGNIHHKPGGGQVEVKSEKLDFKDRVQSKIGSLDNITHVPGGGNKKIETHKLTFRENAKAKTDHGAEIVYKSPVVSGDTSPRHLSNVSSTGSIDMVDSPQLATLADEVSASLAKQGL
Excerpt: A paraffin section from hippocampus of a patient with confirmed AD (at death, Braak VI, from the Netherlands brain bank) were quenched and stained with THK5117 following the procedure used by Okamura and colleagues for autofluorescence studies. An adjacent section was labeled with AT8 anti-tau and assessed using the EnVision + System HRP (DAB) (Dako Denmark) detection method.

[5] = target: hippocampus homogenates of one AD patient (tau) (Homo sapiens, UniProt P10636); experiment: Saturation binding assay of ^3H-THK5117 in hippocampus homogenates; details: one Alzheimer brain
Chain of hippocampus homogenates of one AD patient (tau) (P10636 623-695 limits assumed): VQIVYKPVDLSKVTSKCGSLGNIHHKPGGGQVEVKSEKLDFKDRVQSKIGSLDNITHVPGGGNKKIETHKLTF
Method: as §1
(§3) Saturation binding assays were carried out with incubation of temporal cortex and hippocampus homogenates (0.1 mg tissue) with ^3H-THK5117 (0.04-270 nM) for 2 h at room temperature. Non-specific binding was determined with 1 μM THK5117. The binding reaction was terminated by filtering through glass fiber filters (pre-soaked for 3 h in 0.3 % polyethylenimine), and rinsing three times with cold binding buffer, and counted with a beta scintillation counter (Beckman Coulter LS6500). The results were analyzed with GraphPad Prism software (version 5.0f for Mac OS X, GraphPad Software, San Diego California USA). The equilibrium dissociation constant (Kd) and maximum number of binding sites (Bmax) were then determined.

[6] = target: post-mortem AD temporal brain tissue homogenates (tau) (Homo sapiens, UniProt P10636); experiment: Saturation binding assay of ^3H-THK5117 in temporal cortex homogenates; details: AD temporal lobe homogenates
Chain of post-mortem AD temporal brain tissue homogenates (tau) (P10636 623-758 limits assumed): as the sequence (P10636 623-758 limits assumed) above
Method: as §1, §3

[7] = tested on: brain homogenates from patients with AD (tau); experiment: Regional binding studies with ^3H-THK5117 (3 nM) in brain homogenates; design: species or system Human; details: AD cases
Method: as §1
Regional binding studies with ^3H-THK5117 were carried out on the brain homogenates from temporal cortex, frontal lobe, parietal lobe, caudate nucleus, hippocampus and cerebellum that were incubated with a single concentration of ^3H-THK5117 (3 nM). Non-specific binding was determined with 1 μM of THK5117. Comparisons between AD and control tissues were made using Mann–Whitney non-parametrical tests, with a threshold for significance of p < 0.05.

[8] = tested on: tau (AT8) in paraffin sections of anterior and posterior hippocampus; experiment: ^3H-THK5117 autoradiography versus AT8 immunostaining on paraffin hippocampus sections; type: binding, Human; details: adjacent paraffin sections, AD case one
Excerpt: Routine pathology with AT8 has been performed on anterior and posterior hippocampus paraffin sections from the right hemisphere of the three AD cases. Autoradiographies with ^3H-THK5117 on adjacent sections have been performed after deparafinization following the same protocol as cited above.

[9] = tested on: frozen brain sections from left hemispheres of AD cases and control case (tau); experiment: ^3H-THK5117 autoradiography on large frozen brain hemisphere sections; type: binding, Human
Excerpt: Postmortem brain tissue for autoradiography studies was obtained from three patients with AD that all three had been clinically followed (by A.N.) at the Department of Geriatric Medicine, Karolinska University Hospital, Huddinge, Sweden. The left hemisphere of each brain was frozen in large block sections. The right hemispheres were fixed in formaldehyde, brain tissue was sampled according to the BrainNet Europe protocol and histopathological investigations were undertaken (by I.N.) to confirm AD pathology (see Additional file 1).
Frozen brain sections ([…]) from the left hemispheres of the three AD cases and the healthy control case were cut with a cryostat at −20 °C and thaw-mounted on chrome alum gelatin-subbed slides following a previously described protocol.
For each case, frozen sections were dried, pre-incubated for 10 min with PBS + 0.1%BSA, and were then incubated for one hour with 4 nM ^3H-THK5117. The non-specific binding assay was performed on adjacent sections in the presence of 10 μM THK5117. After incubation, sections were washed 3 times for 5 min with cold incubation buffer, dipped into cold distilled water, and allowed to dry for at least 24 h. A Fujifilm BAS-2500 phosphor imaging plate was then exposed to the section, along with a tritium standard, for three days (Larodan Fine Chemical AB, Malmö, Sweden) before being scanned by a phosphoimager Fujifilm BAS-2500.
Binding of the tracer was quantitatively assessed using MultiGauge Fujifilm software (V3.0). Two independent raters manually segmented different regions of interest, as defined by Duvernoy in “The Human Hippocampus” [19], resulting in regional mean uptake values for each segment. Inter-rater agreement was assessed for all uptake values using a Bland-Altman plot, with limits of agreement set to 95 %. When agreement was satisfactory, regional uptake values from both raters were averaged for subsequent analyses.

Chain of ^3H-THK5117 binding sites in AD temporal cortex homogenates (tau) (P10636 623-708 limits assumed): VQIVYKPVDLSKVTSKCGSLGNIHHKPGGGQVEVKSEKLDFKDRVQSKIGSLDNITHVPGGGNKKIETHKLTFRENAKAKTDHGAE

SMILES: CNc1ccc(-c2nc3ccccc3s2)cc1 [BTA-1, 2-(4-methylaminophenyl)benzothiazole, reference compound]
- Competition with ^3H-THK5117 ([1]; temporal cortex homogenates of four AD cases, ^3H-THK5117 3 nM): No competition

SMILES: CNc1ccc(-c2ccc3cc(OCC(O)CF)ccc3n2)cc1 (stereo not shown) [THK5117]
- Number of binding sites in competition binding curve [2]: two different binding sites
- Ki ([1]; ^3H-THK5117 3 nM, averaged from ten experiments, read-out: Ki2): 16 nM
- Ki ([1]; ^3H-THK5117 3 nM, averaged from ten experiments, read-out: Ki3): 750 nM
- Ki ([1]; potential third site, model constraint >100 for start of curve, ten experiments, read-out: Ki1): 0.001 nM
- Competition between ^3H-PIB and unlabeled THK5117 [3]: No competition
- Autofluorescence staining [4]: THK5117 binding on the neurofibrillary tangles

SMILES: CNc1ccc(-c2ccc3cc(OCC(O)CF)ccc3n2)cc1 (stereo not shown) [^3H-THK5117, 1-Fluoro-3-((2-(4-([^3H]methylamino)phenyl)quinolin-6-yl)oxy)propan-2-ol]
- Kd ([5]; high affinity site, read-out: Kd, first binding site): 3.1 nM
- Kd ([5]; low affinity site, read-out: Kd, second binding site): 34 nM
- Kd ([6]; high affinity site, determined manually from Scatchard plot, averaged from seven experiments, read-out: Kd1): 2.2 nM
- Kd ([6]; low affinity site (GraphPad Prism fit), read-out: Kd2): 24 nM and 23.6 nM

SMILES: [3H]CNc1ccc(-c2ccc3cc(OCC(O)CF)ccc3n2)cc1 (stereo not shown) [^3H-THK5117, 1-Fluoro-3-((2-(4-([^3H]methylamino)phenyl)quinolin-6-yl)oxy)propan-2-ol]
- Bmax, first binding site ([5]; high affinity site): 250 fmol/mg
- Bmax, second binding site ([5]; low affinity site): 1226 fmol/mg
- Regional binding of ^3H-THK5117 ([7]; caudate nucleus homogenates): 198 ± 30 fmol/mg
- Regional binding of ^3H-THK5117 ([7]; cerebellum homogenates): very low
- Regional binding of ^3H-THK5117 ([7]; hippocampus homogenates): 198 ± 67 fmol/mg
- Regional binding of ^3H-THK5117 ([7]; parietal lobe homogenates): 105 ± 46 fmol/mg
- Regional binding of ^3H-THK5117 ([7]; temporal lobe homogenates): 110 ± 47 fmol/mg
- Bmax1 ([6]; high affinity site, determined manually from Scatchard plot): 250 fmol/mg
- Bmax2 ([6]; low affinity site (GraphPad Prism fit)): 1416 fmol/mg
- Autoradiography binding pattern versus AT8 immunostaining [8]: identical binding pattern
- ^3H-THK5117 specific binding ([9]; Amygdala, AD Case 1): 507 fmol/mg
- ^3H-THK5117 specific binding ([9]; Cingulate gyrus, AD Case 1): 292 fmol/mg
- ^3H-THK5117 specific binding ([9]; Cingulate gyrus, AD Case 2): 120 fmol/mg
- ^3H-THK5117 specific binding ([9]; Cingulate gyrus, AD Case 3): 110 fmol/mg
- ^3H-THK5117 specific binding ([9]; Entorhinal cortex, AD Case 1): 713 fmol/mg
- ^3H-THK5117 specific binding ([9]; Entorhinal cortex, AD Case 2): 126 fmol/mg
- ^3H-THK5117 specific binding ([9]; Entorhinal cortex, AD Case 3): 53 fmol/mg
- ^3H-THK5117 specific binding ([9]; Fusiform gyrus, AD Case 1): 585 fmol/mg
- ^3H-THK5117 specific binding ([9]; Fusiform gyrus, AD Case 2): 189 fmol/mg
- ^3H-THK5117 specific binding ([9]; Fusiform gyrus, AD Case 3): 52 fmol/mg
- ^3H-THK5117 specific binding ([9]; Hippocampus, AD Case 1): 693 fmol/mg
- ^3H-THK5117 specific binding ([9]; Hippocampus, AD Case 2): 171 fmol/mg
- ^3H-THK5117 specific binding ([9]; Hippocampus, AD Case 3): 112 fmol/mg
- ^3H-THK5117 specific binding ([9]; Inferior temporal gyrus, AD Case 1): 764 fmol/mg
- ^3H-THK5117 specific binding ([9]; Inferior temporal gyrus, AD Case 2): 125 fmol/mg
- ^3H-THK5117 specific binding ([9]; Inferior temporal gyrus, AD Case 3): 59 fmol/mg
- ^3H-THK5117 specific binding ([9]; Insular cortex, AD Case 1): 423 fmol/mg
- ^3H-THK5117 specific binding ([9]; Insular cortex, AD Case 2): 68 fmol/mg
- ^3H-THK5117 specific binding ([9]; Insular cortex, AD Case 3): 50 fmol/mg
- ^3H-THK5117 specific binding ([9]; Middle frontal gyrus, AD Case 1): 276 fmol/mg
- ^3H-THK5117 specific binding ([9]; Middle frontal gyrus, AD Case 2): 55 fmol/mg
- ^3H-THK5117 specific binding ([9]; Middle frontal gyrus, AD Case 3): 56 fmol/mg
- ^3H-THK5117 specific binding ([9]; Middle temporal gyrus, AD Case 1): 495 fmol/mg
- ^3H-THK5117 specific binding ([9]; Middle temporal gyrus, AD Case 2): 140 fmol/mg
- ^3H-THK5117 specific binding ([9]; Middle temporal gyrus, AD Case 3): 48 fmol/mg
- ^3H-THK5117 specific binding ([9]; Postcentral gyrus, AD Case 1): 312 fmol/mg
- ^3H-THK5117 specific binding ([9]; Postcentral gyrus, AD Case 2): 77 fmol/mg
- ^3H-THK5117 specific binding ([9]; Postcentral gyrus, AD Case 3): 75 fmol/mg
- ^3H-THK5117 specific binding ([9]; Precentral gyrus, AD Case 1): 310 fmol/mg
- ^3H-THK5117 specific binding ([9]; Precentral gyrus, AD Case 2): 32 fmol/mg
- ^3H-THK5117 specific binding ([9]; Precentral gyrus, AD Case 3): 102 fmol/mg
- ^3H-THK5117 specific binding ([9]; Putamen, AD Case 1): 242 fmol/mg
- ^3H-THK5117 specific binding ([9]; Superior frontal gyrus, AD Case 1): 344 fmol/mg
- ^3H-THK5117 specific binding ([9]; Superior frontal gyrus, AD Case 2): 57 fmol/mg
- ^3H-THK5117 specific binding ([9]; Superior frontal gyrus, AD Case 3): 114 fmol/mg
- ^3H-THK5117 specific binding ([9]; Superior temporal gyrus, AD Case 1): 363 fmol/mg
- ^3H-THK5117 specific binding ([9]; Superior temporal gyrus, AD Case 2): 114 fmol/mg
- ^3H-THK5117 specific binding ([9]; Superior temporal gyrus, AD Case 3): 53 fmol/mg
- ^3H-THK5117 specific binding ([9]; Thalamus, AD Case 1): 349 fmol/mg
- Autoradiography binding in control case ([9]; control case compared to the three AD cases, 4 nM): Low and regional binding

From article PMC4489196, “Visualization of regional tau deposits using ^3H-THK5117 in Alzheimer brain tissue” (Acta Neuropathologica Communications, 2015)
